# Assay results published in patent publication US9133115B2 (ACHILLION PHARMACEUTICALS, INC., priority 2008, dated 2015).
# System: HCV replicon
# Assay: HCV replicon replication assay (NPT ELISA) in Huh-7 replicon-containing cells
# Format: cell-based
# Settings: Hepatitis C virus, 72 h; HCV replicon in Huh-7 cells, three days incubation; read-out: EC50
# Procedure, shortened: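 Replication was scored by capture ELISA of neomycin phosphotransferase, whose level tracks replicon replication, after graded compound treatment. The cells were Huh-7 harbouring an HCV-IRES/neo/EMCV-IRES/NS3–NS5B/3′-NTR replicon, plated at 6000-7500 cells/well and dosed 24 h later at 60-70% confluence; interferon alpha was the positive control.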
row,SMILES,EC50 [nM]
1,"C=C[C@@H]1C[C@]1(NC(=O)[C@@H]1C[C@@H](N(Cc2ccccn2)C(=O)n2c3ccccc3c3ccccc32)CN1C(=O)[C@@H](CC(=O)N1CCCCC1)C(C)(C)C)C(=O)NS(=O)(=O)C1CC1 [Compound 191, N-((3R,5S)-1-((S)-2-tert-butyl-4-oxo-4-(piperidin-1-yl)butanoyl)-5-((1R)-1-(cyclopropylsulfonyl-carbamoyl)-2-vinyl-cyclopropyl-carbamoyl)pyrrolidin-3-yl)-N-(pyridin-2-ylmethyl)-9H-carbazole-9-carboxamide]",< 1000
2,"C=C[C@@H]1C[C@]1(NC(=O)[C@@H]1C[C@@H](N(Cc2ccccn2)C(=O)n2c3ccccc3c3ccccc32)CN1C(=O)[C@@H](CC(=O)N1CCCC(F)(F)C1)C(C)(C)C)C(=O)NS(=O)(=O)C1CC1 [Compound 192, N-((3R,5S)-1-((S)-2-tert-butyl-4-(3,3-difluoropiperidin-1-yl)-4-oxobutanoyl)-5-((1R)-1-(cyclopropylsulfonyl-carbamoyl)-2-vinylcyclopropyl-carbamoyl)pyrrolidin-3-yl)-N-(pyridin-2-ylmethyl)-9H-carbazole-9-carboxamide]",< 1000
3,"C=C[C@@H]1C[C@]1(NC(=O)[C@@H]1C[C@@H](N(Cc2ccccn2)C(=O)n2c3ccccc3c3ccccc32)CN1C(=O)[C@@H](CC(=O)N1CCC(F)(F)C1)C(C)(C)C)C(=O)NS(=O)(=O)C1CC1 [Compound 193, N-((3R,5S)-1-((S)-2-tert-butyl-4-(3,3-difluoropyrrolidin-1-yl)-4-oxobutanoyl)-5-((1R)-1-(cyclopropylsulfonyl-carbamoyl)-2-vinylcyclopropyl-carbamoyl)pyrrolidin-3-yl)-N-(pyridin-2-ylmethyl)-9H-carbazole-9-carboxamide]",< 1000
4,"C=C[C@@H]1C[C@]1(NC(=O)[C@@H]1C[C@@H](Oc2cc(-c3ccccn3)nc3c(Cl)c(OC)ccc23)CN1C(=O)[C@@H](CC(=O)N1CCC(F)(F)CC1)C(C)(C)C)C(=O)NS(=O)(=O)C1CC1 [Compound 194, (2S,4R)-1-((S)-2-tert-butyl-4-(4,4-difluoropiperidin-1-yl)-4-oxobutanoyl)-4-(8-chloro-7-methoxy-2-(pyridin-2-yl)quinolin-4-yloxy)-N-((1R)-1-(cyclopropyl-sulfonylcarbamoyl)-2-vinyl-cyclopropyl)pyr-rolidine-2-carboxamide]",< 1000
5,"C=C[C@@H]1C[C@]1(NC(=O)[C@@H]1C[C@@H](Oc2cc(-c3ccccc3)nc3cc(OC)ccc23)CN1C(=O)[C@@H](CC(=O)N1CCN(S(=O)(=O)CC)CC1)C(C)(C)C)C(=O)NS(=O)(=O)C1CC1 [Compound 195, (2S,4R)-1-((S)-2-tert-butyl-4-(4-(ethylsulfonyl)piper-azin-1-yl)-4-oxobutanoyl)-N-((1R)-1-(cyclopropylsulfonyl-carbamoyl)-2-vinylcyclopropyl)-4-(7-methoxy-2-phenylquinolin-4-yloxy)pyrrolidine-2-carboxamide]",< 1000
6,"C=C[C@@H]1C[C@]1(NC(=O)[C@@H]1C[C@@H](Oc2cc(-c3ccccc3)nc3cc(OC)ccc23)CN1C(=O)[C@@H](CC(=O)N1CCN(c2cnccn2)CC1)C(C)(C)C)C(=O)NS(=O)(=O)C1CC1 [Compound 196, (2S,4R)-1-((S)-2-tert-butyl-4-oxo-4-(4-(pyrazin-2-yl)piperazin-1-yl)butanoyl)-N-((1R,2S)-1-(cyclopropyl-sulfonylcarbamoyl)-2-vinylcyclopropyl)-4-(7-methoxy-2-phenylquinolin-4-yloxy)pyrrolidine-2-carboxamide]",< 1000
7,C=C[C@@H]1C[C@]1(NC(=O)[C@@H]1C[C@@H](NC(=O)n2c3ccccc3c3ccccc32)CN1C(=O)[C@@H](CC(=O)N1CC2CC3CC(C2)CC1C3)C(C)(C)C)C(=O)NS(=O)(=O)C1CC1 [Compound 197],< 1000
8,"C=C[C@@H]1C[C@]1(NC(=O)[C@@H]1C[C@@H](NC(=O)n2c3ccccc3c3ccccc32)CN1C(=O)[C@@H](CC(=O)N1CC2CCC1C2)C(C)(C)C)C(=O)NS(=O)(=O)C1CC1 (stereo partly drawn) [Compound 198, N-((3R,5S)-1-((2S)-2-(2-(2-aza-bicyclo[2.2.1]heptan-2-yl)-2-oxoethyl)-3,3-dimethylbutanoyl)-5-((1R)-1-(cyclo-propylsulfonyl-carbamoyl)-2-vinylcyclopropyl-carbamoyl)pyrrolidin-3-yl)-9H-carbazole-9-carboxamide]",< 1000
9,"C=CC1C[C@]1(NC(=O)[C@@H]1C[C@@H](NC(=O)c2cc(-c3ccccc3)nc3ccccc23)CN1C(=O)[C@@H](CC(=O)N1CCC(C(F)(F)F)CC1)C(C)(C)C)C(=O)NS(=O)(=O)C1CC1 (stereo partly drawn) [Compound 199, N-((3R,5S)-1-((S)-2-tert-butyl-4-oxo-4-(4-(trifluoromethyl)piper-idin-1-yl)butanoyl)-5-((1R,2S)-1-(cyclo-propylsulfonyl-carbamoyl)-2-vinyl-cyclopropyl-carbamoyl)pyrrolidin-3-yl)-2-phenylquinoline-4-carboxamide]",< 1000
10,"C=C[C@@H]1C[C@]1(NC(=O)[C@@H]1C[C@@H](NC(=O)c2cc(-c3ccccc3)nc3ccccc23)CN1C(=O)[C@@H](CC(=O)N1CCC(F)(F)CC1)C(C)(C)C)C(=O)NS(=O)(=O)C1CC1 [Compound 200, N-((3R,5S)-1-((S)-2-tert-butyl-4-(4,4-difluoropiperidin-1-yl)-4-oxobutanoyl)-5-((1R,2S)-1-(cyclopropylsulfonyl-carbamoyl)-2-vinylcyclopropyl-carbamoyl)pyrrolidin-3-yl)-2-phenylquinoline-4-carboxamide]",< 1000
11,"C=C[C@@H]1C[C@]1(NC(=O)[C@@H]1C[C@@H](NC(=O)c2cc(-c3ccccc3)nc3ccccc23)CN1C(=O)[C@@H](CC(=O)N1CCC(F)(F)C1)C(C)(C)C)C(=O)NS(=O)(=O)C1CC1 [Compound 201, N-((3R,5S)-1-((S)-2-tert-butyl-4-(3,3-difluoropyrrolidin-1-yl)-4-oxobutanoyl)-5-((1R,2S)-1-(cyclopropylsulfonyl-carbamoyl)-2-vinylcyclopropyl-carbamoyl)pyrrolidin-3-yl)-2-phenylquinoline-4-carboxamide]",< 1000
12,"C=C[C@@H]1C[C@]1(NC(=O)[C@@H]1C[C@@H](NC(=O)c2cc(-c3ccccc3)nc3ccccc23)CN1C(=O)[C@@H](CC(=O)N1CCCC(F)(F)C1)C(C)(C)C)C(=O)NS(=O)(=O)C1CC1 [Compound 202, N-((3R,5S)-1-((S)-2-tert-butyl-4-(3,3-difluoropiperidin-1-yl)-4-oxobutanoyl)-5-((1R,2S)-1-(cyclo-propylsulfonyl-carbamoyl)-2-vinyl-cyclopropyl-carbamoyl)pyrrolidin-3-yl)-2-phenylquinoline-4-carboxamide]",< 1000
13,"C=C[C@@H]1C[C@]1(NC(=O)[C@@H]1C[C@@H](NC(=O)c2cc(-c3ccccc3)nc3ccccc23)CN1C(=O)[C@@H](CC(=O)N1CCCCCC1)C(C)(C)C)C(=O)NS(=O)(=O)C1CC1 [Compound 203, N-((3R,5S)-1-((S)-4-(azepan-1-yl)-2-tert-butyl-4-oxobutanoyl)-5-((1R,2S)-1-(cyclo-propylsulfonyl-carbamoyl)-2-vinylcyclopropyl-carbamoyl)pyrrolidin-3-yl)-2-phenylquinoline-4-carboxamide]",< 1000
